Experimental data from paper PMC6412891, “Synthesis and Biological Evaluation of Novel Thiazolyl-Coumarin Derivatives as Potent Histone Deacetylase Inhibitors with Antifibrotic Activity” (Molecules, 2019).

Assays:
[1] = tested on: HDACs HeLa cells nuclear extract; assay: HDAC inhibitory activity, fluorometric kit, HeLa cell nuclear extract; format: biochemical, human; settings: HeLa cell nuclear extract as HDAC source
HDAC6 human recombinant = molecular target: T1, HDAC6 human recombinant (Homo sapiens, UniProt Q9UBN7); assay: HDAC6 inhibitory activity, fluorometric kit; format: biochemical; settings: Class II
T1 construct: purchased Enzo Life Science BML-AK516
T1 sequence (Q9UBN7 1-1215): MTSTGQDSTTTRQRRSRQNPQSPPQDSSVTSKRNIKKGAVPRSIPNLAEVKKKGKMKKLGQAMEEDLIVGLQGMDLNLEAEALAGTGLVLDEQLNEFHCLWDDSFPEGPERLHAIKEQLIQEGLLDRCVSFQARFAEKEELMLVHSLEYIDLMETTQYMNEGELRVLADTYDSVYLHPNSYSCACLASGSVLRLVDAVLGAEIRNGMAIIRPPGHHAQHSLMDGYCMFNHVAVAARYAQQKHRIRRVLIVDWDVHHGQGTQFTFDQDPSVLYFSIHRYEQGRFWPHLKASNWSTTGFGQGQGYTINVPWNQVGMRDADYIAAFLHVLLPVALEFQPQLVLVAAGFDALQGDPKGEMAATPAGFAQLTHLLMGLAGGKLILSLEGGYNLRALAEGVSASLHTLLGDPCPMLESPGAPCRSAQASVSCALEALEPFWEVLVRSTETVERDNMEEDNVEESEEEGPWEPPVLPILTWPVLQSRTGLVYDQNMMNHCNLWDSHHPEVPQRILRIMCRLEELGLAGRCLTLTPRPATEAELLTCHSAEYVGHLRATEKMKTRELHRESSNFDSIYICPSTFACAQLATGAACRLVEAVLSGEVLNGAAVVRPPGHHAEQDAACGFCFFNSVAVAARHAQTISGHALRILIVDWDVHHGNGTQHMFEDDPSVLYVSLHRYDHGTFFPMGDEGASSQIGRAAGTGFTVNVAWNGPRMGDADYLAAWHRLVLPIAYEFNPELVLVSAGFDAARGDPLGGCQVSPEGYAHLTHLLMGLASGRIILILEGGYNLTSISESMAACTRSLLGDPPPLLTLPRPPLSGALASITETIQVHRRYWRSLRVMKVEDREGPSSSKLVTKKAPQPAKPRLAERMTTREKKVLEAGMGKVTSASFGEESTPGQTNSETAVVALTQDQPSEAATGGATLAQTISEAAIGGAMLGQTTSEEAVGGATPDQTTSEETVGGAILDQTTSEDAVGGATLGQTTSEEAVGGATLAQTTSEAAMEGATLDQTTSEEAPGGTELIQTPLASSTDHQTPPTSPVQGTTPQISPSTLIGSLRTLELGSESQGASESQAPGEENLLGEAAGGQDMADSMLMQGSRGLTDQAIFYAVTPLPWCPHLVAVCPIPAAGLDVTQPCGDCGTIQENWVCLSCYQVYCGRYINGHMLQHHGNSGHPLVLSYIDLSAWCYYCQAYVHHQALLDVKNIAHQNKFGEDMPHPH

[2] = tested on: neonatal rat cardiac fibroblasts (CFs); assay: FBS-induced cardiac fibroblast proliferation assay (Alamar Blue); format: cell-based; settings: 10% FBS-induced CF proliferation, 48 h, read-out: Inhibition percentage of cell proliferation

Row | IC50 [1] | IC50 (HDAC6 human recombinant) | melting point | Structure (SMILES) | inhibition at 1 µM [2] | inhibition at 5 µM [2] | inhibition at 10 µM [2]
1 | 66.7 ± 2.9 nM | 153 ± 5.3 nM | 91 to 92 °C | O=C(CCCCC1CCSS1)Nc1nc(-c2cc3ccccc3oc2=O)cs1 (stereo not shown) [Compound 5a, 5-[1,2]-Dithiolan-3-yl-N-[4-(2-oxo-2H-chromen-3-yl)-thiazol-2-yl]-pentanamide] | 57.3 ± 6.7% | 70.7 ± 7.1% | 92.8 ± 6.4%
2 | 574 ± 24.4 nM | 276 ± 20.9 nM |  | O=C(Nc1nc(-c2cc3ccccc3oc2=O)cs1)c1ccc(O)c(O)c1 [Compound 6a] | 3 ± 3.9% | 35 ± 1.9% | 60.6 ± 1.9%
3 | 6100 ± 390 nM | 5590 ± 184 nM |  | O=C(O)CCCCC(=O)Nc1nc(-c2cc3ccccc3oc2=O)cs1 [Compound 7a] | 0.5 ± 0.1% | 26.8 ± 5.9% | 45 ± 5.1%
4 | 66.9 ± 1.8 nM | 98.3 ± 3.5 nM | 150 to 152 °C (dec.) | O=C(CCCCC(=O)Nc1nc(-c2cc3ccccc3oc2=O)cs1)NO [Compound 8a, 5-[4-(2-Oxo-2H-chromen-3-yl)-thiazol-2-yl-carbamoyl]-N-hydroxypentanamide] | 59.4 ± 6.1% | 79.9 ± 9.7% | 94.4 ± 3.8%
